Read-outs that look alike come from different tables or passages of the source.

Assay in all cases: biochemical
Format in all cases: binding

Assay [1] has as its target T1, receptors in rat forebrain (mainly α4β2) (Rattus norvegicus, UniProt P09483+P12390).
T1 construct: from tissue; host or cells: rat forebrain homogenate
From the text:
(§1) In order to assess the steric and hydropathic effects of the C-5 substituents of the pyridine on the binding affinity and subtype-selectivity at neuronal nicotinic acetylcholine receptors. […] The binding affinity ratios for a ligand, calculated from its affinities at an α subunit paired with either the β2 osubunit or the β4 subunit, represents a measure of the selectivity of that ligand with regard to the β subunits.
In Vitro Inhibition of ^3H-Epibatidin Binding
The high affinity binding site for ^3H-epibatidin is most certainly binding to the α4β2 subtype of nicotinic receptors. The identity of the low affinity site is still believed to be unknown.
Tissue preparation: Preparations may be performed at 0-4° C. unless otherwise indicated. […] The tissue suspension may then be centrifuged at 27,000×g for 10 min. The supernatant is then discarded and the pellet may then be washed three times by centrifugation at 27,000×g for 10 min in 20 mL fresh buffer, and the final pellet may be resuspended in fresh buffer (400 mL per g of original tissue) and used for binding assays.
Assay: Aliquots of 2.0 mL homogenate may be added to 0.100 mL of test solution and 0.100 mL of ^3H-epibatidin (0.3 nM, final concentration), mixed and incubated for 60 min at room temperature. […] The amount of radioactivity on the filters may be determined by conventional liquid scintillation counting. Specific binding is total binding minus non-specific binding.

Assay [2] addresses T2, α3β2 nAChR subtype (Rattus norvegicus, UniProt P04757+P12390).
T2 construct: expressed in transfected cells
From the text: as §1

Assay [3] concerns the target T3, α3β4 nAChR subtype (Rattus norvegicus, UniProt P04757+P12392).
T3 construct: expressed in transfected cells
From the text: as §1

Assay [4] concerns the target T4, α4β2 nAChR subtype (Rattus norvegicus, UniProt P09483+P12390).
T4 construct: expressed in transfected cells
From the text: as §1

In assay [5] the target is T5, α2β2 nAChR subtype (Rattus norvegicus, UniProt P12389+P12390).
T5 construct: expressed in transfected cells
T5 sequence (P12390 25-500): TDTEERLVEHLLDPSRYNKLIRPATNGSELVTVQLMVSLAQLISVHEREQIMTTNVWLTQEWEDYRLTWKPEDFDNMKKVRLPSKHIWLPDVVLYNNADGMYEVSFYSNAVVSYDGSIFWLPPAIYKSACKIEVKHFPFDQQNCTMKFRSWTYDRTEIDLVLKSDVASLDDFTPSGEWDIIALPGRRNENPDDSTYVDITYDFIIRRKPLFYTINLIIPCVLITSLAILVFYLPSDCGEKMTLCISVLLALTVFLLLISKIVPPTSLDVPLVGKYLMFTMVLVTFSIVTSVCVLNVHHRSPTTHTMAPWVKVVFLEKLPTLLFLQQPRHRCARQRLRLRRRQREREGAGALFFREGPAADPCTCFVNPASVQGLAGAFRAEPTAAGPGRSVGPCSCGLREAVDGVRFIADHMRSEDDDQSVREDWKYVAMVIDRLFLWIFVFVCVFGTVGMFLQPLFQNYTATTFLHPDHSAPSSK
T5 sequence (P12389 28-511): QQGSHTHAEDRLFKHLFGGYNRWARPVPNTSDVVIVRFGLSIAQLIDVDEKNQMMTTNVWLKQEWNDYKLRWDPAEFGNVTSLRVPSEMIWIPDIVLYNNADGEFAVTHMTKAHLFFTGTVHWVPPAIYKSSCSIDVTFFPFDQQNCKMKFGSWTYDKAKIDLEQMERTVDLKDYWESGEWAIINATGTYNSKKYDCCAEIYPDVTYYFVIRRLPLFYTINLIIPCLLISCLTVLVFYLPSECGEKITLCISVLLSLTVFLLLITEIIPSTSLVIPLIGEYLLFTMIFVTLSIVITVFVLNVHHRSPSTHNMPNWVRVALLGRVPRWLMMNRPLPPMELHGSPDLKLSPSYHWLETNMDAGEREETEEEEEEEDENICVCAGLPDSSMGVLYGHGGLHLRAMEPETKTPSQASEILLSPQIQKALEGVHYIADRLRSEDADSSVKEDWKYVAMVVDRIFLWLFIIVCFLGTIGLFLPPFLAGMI
From the text: as §1

Assay [6] concerns the target T6, α2β4 nAChR subtype (Rattus norvegicus, UniProt P12389+P12392).
T6 construct: expressed in transfected cells
From the text: as §1

Assay [7] addresses T7, α4β4 nAChR subtype (Rattus norvegicus, UniProt P09483+P12392).
T7 construct: expressed in transfected cells
From the text: as §1

Setting [8] is: Ki α4β2*, Table 5, *Rat forebrain, mainly α4β2.
Setting [9] is: Ki α3β2, Table 5, rat nAChR subtypes.
Where [10] appears, read: Ki α3β4, Table 5, rat nAChR subtypes.
Setting [11] is: Ki α4β2, Table 5, rat nAChR subtypes.
Where [12] appears, read: Ki α2β2, Table 5, rat nAChR subtypes.
Setting [13] is: Ki α2β4, Table 5, rat nAChR subtypes.
Setting [14] is: Ki α4β4, Table 5, rat nAChR subtypes.
Setting [15] is: Ki Rat forebrain, Table 1, mean of 3 (1, 2: 3 to 6) independent measurements.
Setting [16] is: Ki α3β2, Table 1, mean of 3 (1, 2: 3 to 6) independent measurements.
The mark [17] stands for this setting: Ki α3β4, Table 1, mean of 3 (1, 2: 3 to 6) independent measurements.
[18] abbreviates: Ki α4β2, Table 1, mean of 3 (1, 2: 3 to 6) independent measurements.
Setting [19] is: Ki α2β2, Table 1, mean of 3 (1, 2: 3 to 6) independent measurements.
Setting [20] is: Ki α2β4, Table 1, mean of 3 (1, 2: 3 to 6) independent measurements.
Where [21] appears, read: Ki α4β4, Table 1, mean of 3 (1, 2: 3 to 6) independent measurements.

T7 sequence (P12392 21-495): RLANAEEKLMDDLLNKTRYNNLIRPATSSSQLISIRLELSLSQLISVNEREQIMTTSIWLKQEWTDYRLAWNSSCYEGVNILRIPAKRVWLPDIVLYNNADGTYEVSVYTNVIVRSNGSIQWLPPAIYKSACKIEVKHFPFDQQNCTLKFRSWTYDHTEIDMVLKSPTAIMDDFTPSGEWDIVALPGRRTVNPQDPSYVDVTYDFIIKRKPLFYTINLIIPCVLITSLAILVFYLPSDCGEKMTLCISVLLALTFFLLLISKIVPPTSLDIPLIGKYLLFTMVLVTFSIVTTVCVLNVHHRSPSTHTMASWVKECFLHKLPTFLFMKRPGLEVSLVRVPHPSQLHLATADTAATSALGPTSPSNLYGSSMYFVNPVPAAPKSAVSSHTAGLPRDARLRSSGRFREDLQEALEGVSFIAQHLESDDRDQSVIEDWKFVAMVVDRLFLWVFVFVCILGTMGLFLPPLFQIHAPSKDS
T7 sequence (P09483 31-630): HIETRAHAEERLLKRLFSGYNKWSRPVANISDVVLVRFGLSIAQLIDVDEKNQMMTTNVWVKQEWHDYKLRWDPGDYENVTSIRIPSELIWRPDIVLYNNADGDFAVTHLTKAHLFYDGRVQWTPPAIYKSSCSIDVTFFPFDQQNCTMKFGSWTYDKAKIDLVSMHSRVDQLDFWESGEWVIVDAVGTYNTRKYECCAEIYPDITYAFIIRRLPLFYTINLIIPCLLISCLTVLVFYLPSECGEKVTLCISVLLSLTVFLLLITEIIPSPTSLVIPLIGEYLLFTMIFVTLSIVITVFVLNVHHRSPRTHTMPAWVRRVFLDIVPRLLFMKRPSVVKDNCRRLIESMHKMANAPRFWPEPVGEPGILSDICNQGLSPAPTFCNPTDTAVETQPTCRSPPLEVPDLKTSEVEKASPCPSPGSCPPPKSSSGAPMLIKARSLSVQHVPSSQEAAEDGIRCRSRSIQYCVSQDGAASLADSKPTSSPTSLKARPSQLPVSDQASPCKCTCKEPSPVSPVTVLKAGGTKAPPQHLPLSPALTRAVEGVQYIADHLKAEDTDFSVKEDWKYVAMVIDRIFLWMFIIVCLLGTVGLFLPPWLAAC
T2 sequence (P12390 25-500): as the sequence (P12390 25-500) above
T2 sequence (P04757 26-499): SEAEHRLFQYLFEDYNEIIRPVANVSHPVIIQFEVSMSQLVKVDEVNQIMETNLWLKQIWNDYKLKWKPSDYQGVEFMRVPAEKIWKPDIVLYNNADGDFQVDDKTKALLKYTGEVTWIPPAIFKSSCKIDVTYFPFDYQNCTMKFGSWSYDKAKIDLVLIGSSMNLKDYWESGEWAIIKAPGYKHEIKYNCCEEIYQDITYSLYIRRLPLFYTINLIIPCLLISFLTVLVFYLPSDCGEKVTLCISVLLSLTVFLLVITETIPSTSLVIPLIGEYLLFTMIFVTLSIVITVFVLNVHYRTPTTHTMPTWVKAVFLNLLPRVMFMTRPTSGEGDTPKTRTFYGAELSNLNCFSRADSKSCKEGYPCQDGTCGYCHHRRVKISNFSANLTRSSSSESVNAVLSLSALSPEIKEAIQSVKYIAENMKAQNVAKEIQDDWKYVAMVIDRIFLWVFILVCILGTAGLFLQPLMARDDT
T4 sequence (P12390 25-500): as the sequence (P12390 25-500) above
T4 sequence (P09483 31-630): as the sequence (P09483 31-630) above
T3 sequence (P04757 26-499): as the sequence (P04757 26-499) above
T3 sequence (P12392 21-495): as the sequence (P12392 21-495) above
T1 sequence (P09483 31-630): as the sequence (P09483 31-630) above
T1 sequence (P12390 25-500): as the sequence (P12390 25-500) above
T6 sequence (P12389 28-511): as the sequence (P12389 28-511) above
T6 sequence (P12392 21-495): as the sequence (P12392 21-495) above

Usually Ki stands for the dissociation constant of the complex between target and ligand, obtained from inhibition or displacement. Regarding `OC1C2CCC(N2)C1c1ccc(Cl)nc1` (single isomer, unassigned) [Ligand 2], the Ki came out at 2060 nM in assay [1] (setting [8]); 1130 nM in assay [2] (setting [9]); 1170 nM in assay [3] (setting [10]); 2370 nM in assay [4] (setting [11]); 814 nM in assay [5] (setting [12]); 617 nM in assay [6] (setting [13]). Further, the Ki in assay [7] (setting [14]) was 515 nM.
On to `C#Cc1cncc(OC[C@@H]2CCCN2C)c1` [Ligand 18], for which the Ki in assay [1] (setting [15]) is 3.65 nM; in assay [2] (setting [16]), 10.7 nM; in assay [3] (setting [17]), 3080 nM; in assay [4] (setting [18]) it was 1.02 nM; in assay [5] (setting [19]), 0.75 nM; in assay [6] (setting [20]), 434 nM. The compound further had a Ki in assay [7] (setting [21]) of 473 nM.
For `CN1CCC[C@H]1COc1cncc(CCCCCCO)c1` [Ligand 19], the Ki was found to be 5.39 nM in assay [1]; 13.4 nM in assay [2]; 20000 nM in assay [3] (setting [17]); 0.75 nM in assay [4] (setting [18]); 3.33 nM in assay [5]; 1150 nM in assay [6]. Moreover, the Ki in assay [7] came to 968 nM.
As to `Clc1ccc(C2CC3CCC2N3CCN2C3CCC2CC3)cn1` (stereo not shown) [ZW-84], the Ki in assay [1] (setting [8]) is 112 nM; in assay [2] (setting [9]), 21.1 nM; in assay [3] (setting [10]), 67.6 nM; in assay [4] (setting [11]), 21.9 nM; in assay [5] (setting [12]), 7.08 nM; in assay [6] (setting [13]), 16.6 nM. This compound also showed a Ki in assay [7] (setting [14]) of 84.5 nM.
Regarding `O[C@H]1[C@H](c2ccc(Cl)nc2)[C@H]2CC[C@@H]1N2` (relative stereo) [Ligand 3], the Ki in assay [2] (Ki α3β2) came out at 7.3 nM; in assay [3] (Ki α3β4), 39.1 nM; in assay [4] (Ki α4β2), 2.9 nM; in assay [5] (Ki α2β2), 2.5 nM; in assay [6] (Ki α2β4), 15.3 nM; in assay [7] (Ki α4β4) it was 11.2 nM.
`CN1CCC[C@H]1COc1cncc(C#CCO)c1` [Ligand 14]: the Ki in assay [1] (setting [15]) came to 3.16 nM; in assay [2] (setting [16]) it was 7.64 nM; in assay [3] (setting [17]) it was 18200 nM; in assay [4] (setting [18]), 0.954 nM; in assay [5] (setting [19]) it was 2.43 nM; in assay [6] (setting [20]) it was 1880 nM. Further, the Ki in assay [7] (setting [21]) came to 1690 nM.
Take `C#Cc1cncc([C@@H]2CCCN2C)c1` [SIB-1508Y, reference compound]: the Ki turned out to be 1890 nM in assay [2] (read-out: Ki α3β2); 4430 nM in assay [3] (read-out: Ki α3β4); 7080 nM in assay [4] (read-out: Ki α4β2); 642 nM in assay [5] (read-out: Ki α2β2); 1140 nM in assay [6] (read-out: Ki α2β4); 3240 nM in assay [7] (read-out: Ki α4β4).
Turning to `Clc1ccc(C2CC3CC4(OCCO4)C2N3)cn1` (stereo not shown) [ZW-82], the Ki came out at 304 nM in assay [1] (setting [8]); 147 nM in assay [2] (setting [9]); 173 nM in assay [3] (setting [10]); 57.3 nM in assay [4] (setting [11]); 30 nM in assay [5] (setting [12]); 93.8 nM in assay [6] (setting [13]). The compound further showed a Ki in assay [7] (setting [14]) of 53.1 nM.
As to `OC1C2CCC(N2)C1c1ccc(Cl)nc1` (single isomer, unassigned) [Ligand 3, 2-exo-(2-Chloro-5-pyridyl)-3-endo-hydroxyl-7-azabicyclo[2.2.1]heptane], the Ki in assay [1] (setting [8]) is 4.79 nM; in assay [2] (setting [9]), 7.31 nM; in assay [3] (setting [10]) it was 39.1 nM; in assay [4] (setting [11]), 2.92 nM; in assay [5] (setting [12]), 2.49 nM; in assay [6] (setting [13]), 15.3 nM. The compound further registered a Ki in assay [7] (setting [14]) of 11.2 nM.
Consider `Clc1ccc(C2CC3CCC2N3CCCN2C3CCC2C(c2ccc(Cl)nc2)C3)cn1` (stereo not shown) [Ligand 59b], for which the Ki in assay [2] (Ki α3β2, Table 4, bivalent analogues) was found to be 5.2 nM; in assay [3] (Ki α3β4, Table 4, bivalent analogues), 62.9 nM; in assay [4] (Ki α4β2, Table 4, bivalent analogues) it was 8.7 nM; in assay [5] (Ki α2β2, Table 4, bivalent analogues) it was 6.1 nM; in assay [6] (Ki α2β4, Table 4, bivalent analogues) it was 15.7 nM; in assay [7] (Ki α4β4, Table 4, bivalent analogues), 23.3 nM.

The record behind these values is patent US8030300B2, “Ligands for nicotinic acetylcholine receptors, and methods of making and using them” (priority 2003, dated 2011).
